Experimental data as given in PMC8050276, “Estradiol analogs attenuate autophagy, cell migration and invasion by direct and selective inhibition of TRPML1, independent of estrogen receptors” (Scientific Reports, 2021).

Experiments:
[1] = target: T1, TRPML1 (Homo sapiens, UniProt Q9GZU1); test: Endolysosomal patch-clamp, endo-lysosomes from MDA-MB-231 cells; assay type: cell-based; conditions: activation with ML-SA1
T1 construct: vacuolin-enlarged endo-lysosomes isolated from WT and KO1 MDA-MB-231 cells; endogenous in cells; host or cells: MDA-MB-231
Procedure: For whole-LE/LY manual patch-clamp recordings, cells were treated with 1 μM vacuolin-1 (> 2 h) at 37 °C and 5% CO2 and experiments performed as described previously[19],[25]. Compound was washed out before patch-clamp experimentation. Currents were recorded using an EPC-10 patch-clamp amplifier (HEKA, Lambrecht, Germany) and PatchMaster acquisition software (https://www.heka.com/). Data were digitized at 40 kHz and filtered at 2.8 kHz. Fast and slow capacitive transients were cancelled by the compensation circuit of the EPC-10 amplifier. All recordings were obtained at room temperature and were analyzed using PatchMaster acquisition software (https://www.heka.com/) and OriginPro 6.1 (https://www.originlab.com/). […] For all experiments, salt-agar bridges were used to connect the reference Ag–AgCl wire to the bath solution to minimize voltage offsets. Liquid junction potential was corrected. For the application of the small molecule inhibitors/flavonoids, cytoplasmic solution was completely exchanged by cytoplasmic solution containing compound. The current amplitudes at − 100 mV were extracted from individual ramp current recordings. Unless otherwise stated, cytoplasmic solution contained 140 mM K-MSA, 5 mM KOH, 4 mM NaCl, 0.39 mM CaCl2, 1 mM EGTA and 10 mM HEPES (pH was adjusted with KOH to 7.2). […]

[2] = system: MDA-MB-231 cells; test: Invasion assay, Matrigel-coated transwell chambers; assay type: cell-based, human; conditions: various concentrations, 4 h and o/n
Procedure: For invasion measurements transwell chambers in 24-well permeable support plates (Corning, #3421) were coated with Corning Matrigel basement membrane matrix (Corning, #354234) for 1.5 h. A total of 4 × 104 MDA-MB-231 WT and TRPML1 KO cells were seeded on top of the chambers in serum-free medium, and direct stimulation with EDME was performed. The lower compartment contained the chemotactic gradient, medium with 10% FBS. Cells were allowed to migrate for 4 h and o/n, and were then fixed and stained with crystal violet containing methanol. Non-invaded cells were removed with Q-tips and pictures were taken of the bottom side of the membrane using an inverted microscope (Olympus CKX41) and an Olympus SC50 camera (Olympus). The number of invaded cells was quantified using ImageJ 1.52a software.

[3] = system: MDA-MB-231 cells; test: Wound healing/migration scratch assay; assay type: cell-based, human; conditions: various concentrations, o/n
Procedure: Wound healing assay was performed using 12-well plates (Sarstedt) at full confluency. Cells were incubated overnight (serum-free), and a scratch was performed using a yellow pipet tip. Pictures were taken at 0 h and after over night (o/n) incubation using an inverted microscope (Leica DM IL LED) and using a microscope camera (Leica DFC 3000 G).

T1 sequence (Q9GZU1 whole entry): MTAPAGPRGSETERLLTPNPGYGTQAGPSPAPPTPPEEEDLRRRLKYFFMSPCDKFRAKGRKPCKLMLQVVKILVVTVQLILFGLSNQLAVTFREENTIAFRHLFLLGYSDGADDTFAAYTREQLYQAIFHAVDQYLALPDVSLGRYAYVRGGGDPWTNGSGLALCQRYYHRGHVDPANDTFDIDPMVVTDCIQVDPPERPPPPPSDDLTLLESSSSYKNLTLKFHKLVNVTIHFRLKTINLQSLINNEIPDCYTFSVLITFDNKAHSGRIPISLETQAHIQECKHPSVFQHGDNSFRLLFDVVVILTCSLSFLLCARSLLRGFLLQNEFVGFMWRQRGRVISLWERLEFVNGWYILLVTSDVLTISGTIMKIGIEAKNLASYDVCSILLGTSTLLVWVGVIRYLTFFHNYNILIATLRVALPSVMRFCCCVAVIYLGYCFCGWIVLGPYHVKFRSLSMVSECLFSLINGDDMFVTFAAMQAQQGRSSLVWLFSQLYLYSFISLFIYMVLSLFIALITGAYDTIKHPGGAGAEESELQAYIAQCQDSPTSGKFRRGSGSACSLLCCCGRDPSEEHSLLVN

With `COc1ccc2c(c1)CC[C@@H]1[C@@H]2CC[C@]2(C)[C@@H](O)CC[C@@H]12` [EDME, 17β-estradiol methyl ether] the “inhibition of TRPML1 activation in MDA-MB-231 endo-lysosomes” value [1] was “inhibits TRPML1 activation”, the “invasion of MDA-MB-231 cells” value [2] was “significantly reduced” and the “migration of MDA-MB-231 cells” value [3] was “reduced significantly”.
